Test results as given in patent US9926282B2, “Phthalazinones and isoquinolinones as rock inhibitors” (BRISTOL-MYERS SQUIBB COMPANY, priority 2013, dated 2018).

Key:
ROCK1 = ROCK1 (Homo sapiens (Human), UniProt Q13464); test: ROCK assay (LABCHIP peptide phosphorylation), ROCK1; type: biochemical; conditions: 5 μM ATP, 1.5 μM peptide substrate; read-out: ROCK1 IC50
ROCK2 = ROCK2 (Homo sapiens (Human), UniProt O75116); test: ROCK assay (LABCHIP peptide phosphorylation), ROCK2; type: biochemical; conditions: 5 μM ATP, 1.5 μM peptide substrate
Chain of ROCK2 (O75116 whole entry, species assumed): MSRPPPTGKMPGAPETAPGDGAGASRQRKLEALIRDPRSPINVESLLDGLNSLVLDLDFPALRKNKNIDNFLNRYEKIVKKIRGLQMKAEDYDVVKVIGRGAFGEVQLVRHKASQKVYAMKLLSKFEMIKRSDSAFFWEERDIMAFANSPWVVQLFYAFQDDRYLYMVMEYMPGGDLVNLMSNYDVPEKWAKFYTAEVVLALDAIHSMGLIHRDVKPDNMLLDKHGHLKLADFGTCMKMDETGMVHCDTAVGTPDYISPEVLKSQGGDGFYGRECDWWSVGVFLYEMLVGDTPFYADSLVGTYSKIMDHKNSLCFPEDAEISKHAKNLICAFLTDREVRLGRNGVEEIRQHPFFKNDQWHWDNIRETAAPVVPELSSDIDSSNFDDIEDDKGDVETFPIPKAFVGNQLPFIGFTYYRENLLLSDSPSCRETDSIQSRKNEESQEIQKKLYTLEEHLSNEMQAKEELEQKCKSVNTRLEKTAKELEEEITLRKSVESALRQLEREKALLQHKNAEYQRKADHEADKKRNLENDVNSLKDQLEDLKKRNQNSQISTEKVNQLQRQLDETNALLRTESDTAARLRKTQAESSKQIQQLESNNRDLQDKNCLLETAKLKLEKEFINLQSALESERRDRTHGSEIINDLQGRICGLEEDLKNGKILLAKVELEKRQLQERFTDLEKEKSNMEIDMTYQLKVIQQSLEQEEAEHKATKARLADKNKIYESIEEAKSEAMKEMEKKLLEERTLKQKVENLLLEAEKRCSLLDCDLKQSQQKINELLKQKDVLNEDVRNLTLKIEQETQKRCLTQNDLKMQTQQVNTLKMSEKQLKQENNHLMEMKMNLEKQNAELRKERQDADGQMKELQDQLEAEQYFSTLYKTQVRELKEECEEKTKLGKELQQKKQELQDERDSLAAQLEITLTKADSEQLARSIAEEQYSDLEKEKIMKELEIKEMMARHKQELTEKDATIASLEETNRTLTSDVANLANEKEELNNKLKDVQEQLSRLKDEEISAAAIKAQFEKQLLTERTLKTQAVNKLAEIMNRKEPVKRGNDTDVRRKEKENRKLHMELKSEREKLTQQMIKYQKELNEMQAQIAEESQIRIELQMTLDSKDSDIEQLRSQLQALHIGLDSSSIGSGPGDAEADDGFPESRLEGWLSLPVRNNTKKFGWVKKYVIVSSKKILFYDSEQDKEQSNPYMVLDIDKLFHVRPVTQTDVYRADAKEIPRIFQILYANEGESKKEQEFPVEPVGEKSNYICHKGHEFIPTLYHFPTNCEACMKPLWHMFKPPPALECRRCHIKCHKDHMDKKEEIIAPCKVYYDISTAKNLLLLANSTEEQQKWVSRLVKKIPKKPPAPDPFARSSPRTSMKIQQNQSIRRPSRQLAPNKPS

Chain of ROCK1 (Q13464 whole entry, species assumed): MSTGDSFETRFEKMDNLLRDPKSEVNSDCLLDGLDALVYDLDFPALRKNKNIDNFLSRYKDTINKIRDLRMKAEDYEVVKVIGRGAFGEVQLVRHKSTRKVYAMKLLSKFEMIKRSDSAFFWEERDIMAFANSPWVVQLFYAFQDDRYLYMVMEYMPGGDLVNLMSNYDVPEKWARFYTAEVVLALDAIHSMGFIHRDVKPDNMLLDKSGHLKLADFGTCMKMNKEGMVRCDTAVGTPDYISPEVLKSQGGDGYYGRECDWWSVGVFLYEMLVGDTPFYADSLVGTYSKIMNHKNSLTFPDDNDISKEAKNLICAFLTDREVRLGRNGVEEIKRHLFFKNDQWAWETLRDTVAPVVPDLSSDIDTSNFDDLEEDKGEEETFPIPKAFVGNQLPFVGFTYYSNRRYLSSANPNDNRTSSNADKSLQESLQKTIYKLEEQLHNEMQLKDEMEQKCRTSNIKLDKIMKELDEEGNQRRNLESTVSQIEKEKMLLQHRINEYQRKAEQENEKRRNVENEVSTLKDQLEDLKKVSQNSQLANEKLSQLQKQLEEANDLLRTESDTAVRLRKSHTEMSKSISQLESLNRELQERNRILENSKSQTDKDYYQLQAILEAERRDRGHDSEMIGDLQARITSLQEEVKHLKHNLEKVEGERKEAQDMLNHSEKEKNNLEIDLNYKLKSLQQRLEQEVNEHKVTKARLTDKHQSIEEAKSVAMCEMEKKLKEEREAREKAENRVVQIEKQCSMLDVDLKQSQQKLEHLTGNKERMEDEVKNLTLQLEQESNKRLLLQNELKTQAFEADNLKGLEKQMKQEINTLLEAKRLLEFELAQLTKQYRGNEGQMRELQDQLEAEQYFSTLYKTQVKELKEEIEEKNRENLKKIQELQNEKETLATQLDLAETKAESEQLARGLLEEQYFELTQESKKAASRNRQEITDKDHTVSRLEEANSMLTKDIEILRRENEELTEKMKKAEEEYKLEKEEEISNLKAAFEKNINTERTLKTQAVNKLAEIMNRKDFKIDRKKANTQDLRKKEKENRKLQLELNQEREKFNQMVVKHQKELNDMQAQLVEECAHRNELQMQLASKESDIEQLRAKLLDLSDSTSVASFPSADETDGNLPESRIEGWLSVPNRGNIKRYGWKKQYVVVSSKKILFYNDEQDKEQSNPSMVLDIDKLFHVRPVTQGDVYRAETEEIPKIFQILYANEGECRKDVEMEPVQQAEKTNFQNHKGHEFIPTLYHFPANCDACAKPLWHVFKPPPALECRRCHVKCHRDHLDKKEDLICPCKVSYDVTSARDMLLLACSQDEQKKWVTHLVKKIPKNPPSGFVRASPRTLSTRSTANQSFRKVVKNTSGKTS

SMILES | IC50 (ROCK1) [nM] | IC50 (ROCK2; given as number) [nM] | IC50 (ROCK2) [nM]
O=C(Nc1ccc(-c2n[nH]c(=O)c3ccccc23)c(CO)c1)c1cnc2ccccn12 [Example 365, N-(3-(Hydroxymethyl)-4-(4-oxo-3,4-dihydrophthalazin-1-yl)phenyl)imidazo[1,2-a]pyridine-3-carboxamide] | 1000 to 50000 | 222 | –
O=C(Nc1ccc(-c2n[nH]c(=O)c3ccccc23)cc1)c1cnn(-c2ccc(Cl)cc2)c1 [Example 388, 1-(4-Chlorophenyl)-N-(4-(4-oxo-3,4-dihydrophthalazin-1-yl)phenyl)-1H-pyrazole-4-carboxamide] | 101 to 1000 | – | 0.1 to 100
CC1(Cn2nc(C(=O)Nc3ccc(-c4n[nH]c(=O)c5ccccc45)cc3)c3ccccc32)COC1 [Example 145, 1-[(3-methyloxetan-3-yl)methyl]-N-[4-(4-oxo-3,4-dihydrophthalazin-1-yl)phenyl]-1H-indazole-3-carboxamide] | 0.1 to 100 | – | 0.1 to 100
Cn1nc2ccccc2c1C(=O)Nc1ccc(-c2n[nH]c(=O)c3ccccc23)cc1 [Example 131, 2-methyl-N-[4-(4-oxo-3,4-dihydrophthalazin-1-yl)phenyl]-2H-indazole-3-carboxamide] | 0.1 to 100 | – | 0.1 to 100
CC(C(=O)N1Cc2ccccc2C1)c1ccc(-c2n[nH]c(=O)c3ccccc23)cc1 (stereo not drawn) [Example 43, 4-(4-(1-(Isoindolin-2-yl)-1-oxopropan-2-yl)phenyl)phthalazin-1(2H)-one] | 1000 to 50000 | – | 101 to 1000
COC(=O)N1CC(Cn2nc(C(=O)Nc3ccc(-c4n[nH]c(=O)c5ccccc45)cc3)c3ccccc32)C1 [Example 341, Methyl 3-((3-((4-(4-oxo-3,4-dihydrophthalazin-1-yl)phenyl)carbamoyl)-1H-indazol-1-yl)methyl)azetidine-1-carboxylate] | 0.1 to 100 | – | 0.1 to 100
O=C(Cc1ccc(-c2n[nH]c(=O)c3ccccc23)cc1)N[C@H]1CCc2ccccc21 [Example 82, (S)—N-(2,3-Dihydro-1H-inden-1-yl)-2-(4-(4-oxo-3,4-dihydrophthalazin-1-yl)phenyl)acetamide] | 1000 to 50000 | – | 101 to 1000
COCCOc1ccc2c(C(=O)Nc3ccc(-c4n[nH]c(=O)c5ccccc45)cc3)cnn2c1 [Example 175, 6-(2-methoxyethoxy)-N-[4-(4-oxo-3,4-dihydrophthalazin-1-yl)phenyl]pyrazolo[1,5-a]pyridine-3-carboxamide] | 0.1 to 100 | – | 0.1 to 100
O=C(Cc1ccc(-c2n[nH]c(=O)c3ccccc23)cc1)N1CCc2ccc(OCc3ccccc3)cc21 [Example 83, 4-(4-(2-(6-(Benzyloxy)indolin-1-yl)-2-oxoethyl)phenyl)phthalazin-1(2H)-one] | 0.1 to 100 | – | 0.1 to 100
Cn1cc(C(=O)Nc2ccc(-c3n[nH]c(=O)c4ccccc34)cc2)cn1 [Example 212, 1-methyl-N-[4-(4-oxo-3,4-dihydrophthalazin-1-yl)phenyl]-1H-pyrazole-4-carboxamide] | 101 to 1000 | – | 0.1 to 100
O=C(Cc1ccc(-c2n[nH]c(=O)c3ccccc23)cc1)Nc1ccccc1 [Example 20, 2-[4-(4-oxo-3,4-dihydrophthalazin-1-yl)phenyl]-N-phenylacetamide] | 1000 to 50000 | – | 101 to 1000
COc1ccc2c(c1)CN(C(=O)Oc1ccc(-c3c[nH]c(=O)c4ccc(OC)cc34)cc1)C2 [Example 267, 4-(6-Methoxy-1-oxo-1,2-dihydroisoquinolin-4-yl)phenyl 5-methoxyisoindoline-2-carboxylate] | 101 to 1000 | – | 0.1 to 100
O=C(Nc1ccc(-c2n[nH]c(=O)c3ccccc23)cc1)c1nn(CCO)c2ccccc12 [Example 155, 1-(2-hydroxyethyl)-N-[4-(4-oxo-3,4-dihydrophthalazin-1-yl)phenyl]-1H-indazole-3-carboxamide] | 0.1 to 100 | – | 0.1 to 100
O=C(Nc1ccc(-c2n[nH]c(=O)c3ccccc23)cc1)c1cn2c(n1)CCCC2 [Example 134, N-[4-(4-oxo-3,4-dihydrophthalazin-1-yl)phenyl]-5H,6H,7H,8H-imidazo[1,2-a]pyridine-2-carboxamide] | 101 to 1000 | – | 0.1 to 100
O=C(Nc1ccc(-c2n[nH]c(=O)c3ccccc23)c(CO)c1)c1nn(CCO)c2ccccc12 [Example 359, 1-(2-Hydroxyethyl)-N-(3-(hydroxymethyl)-4-(4-oxo-3,4-dihydrophthalazin-1-yl)phenyl)-1H-indazole-3-carboxamide] | 1000 to 50000 | – | 0.1 to 100
O=C(Cc1ccc(-c2n[nH]c(=O)c3ccccc23)cc1)Nc1nc2ccccc2[nH]1 [Example 9, N-(1H-1,3-benzodiazol-2-yl)-2-[4-(4-oxo-3,4-dihydrophthalazin-1-yl)phenyl]acetamide] | 1000 to 50000 | – | 0.1 to 100
O=C(Nc1ccc(-c2n[nH]c(=O)c3ccccc23)cc1)c1ccc(-n2cncn2)cc1 [Example 92, N-[4-(4-oxo-3,4-dihydrophthalazin-1-yl)phenyl]-4-(1H-1,2,4-triazol-1-yl)benzamide] | 101 to 1000 | – | 0.1 to 100

SMILES | IC50 (ROCK1) [nM] | IC50 (ROCK2; given as number) [nM] | IC50 (ROCK2) [nM]
CC(C)c1c(C(=O)Nc2ccc(-c3n[nH]c(=O)c4ccccc34)cc2)nnn1-c1ccccc1 [Example 221, N-[4-(4-oxo-3,4-dihydrophthalazin-1-yl)phenyl]-1-phenyl-5-(propan-2-yl)-1H-1,2,3-triazole-4-carboxamide] | 101 to 1000 | – | 101 to 1000
CC(C)(C)n1cc(NC(=O)c2ccncc2)c(C(=O)Nc2ccc(-c3n[nH]c(=O)c4ccccc34)cc2)n1 [Example 234, N-(1-tert-butyl-3-{[4-(4-oxo-3,4-dihydrophthalazin-1-yl)phenyl]carbamoyl}-1H-pyrazol-4-yl)pyridine-4-carboxamide] | 101 to 1000 | – | 0.1 to 100
O=C(Nc1ccc(-c2n[nH]c(=O)c3ccccc23)cc1)C1Cc2ccccc2C1 [Example 44, N-(4-(4-Oxo-3,4-dihydrophthalazin-1-yl)phenyl)-2,3-dihydro-1H-indene-2-carboxamide] | 1000 to 50000 | – | 0.1 to 100
O=C(Cc1ccc(-c2c[nH]c(=O)c3ccccc23)cc1)N1Cc2ccccc2C1 [Example 38, 4-(4-(2-(Isoindolin-2-yl)-2-oxoethyl)phenyl)isoquinolin-1(2H)-one] | 101 to 1000 | – | 0.1 to 100
COc1cccc2[nH]cc(C(=O)Nc3ccc(-c4n[nH]c(=O)c5ccccc45)cc3)c12 [Example 117, 4-methoxy-N-[4-(4-oxo-3,4-dihydrophthalazin-1-yl)phenyl]-1H-indole-3-carboxamide] | 0.1 to 100 | – | 0.1 to 100
O=C(Nc1ccc(-c2n[nH]c(=O)c3ccccc23)cc1)c1nn(CC2CCCCO2)c2ccccc12 (stereo not drawn) [Example 168, 1-(oxan-2-ylmethyl)-N-[4-(4-oxo-3,4-dihydrophthalazin-1-yl)phenyl]-1H-indazole-3-carboxamide] | 0.1 to 100 | – | 0.1 to 100
CC(O)COc1ccn2ncc(C(=O)Nc3ccc(-c4n[nH]c(=O)c5ccccc45)cc3)c2c1 (stereo not drawn) [Example 185, 5-(2-hydroxypropoxy)-N-[4-(4-oxo-3,4-dihydrophthalazin-1-yl)phenyl]pyrazolo[1 5-a]pyridine-3-carboxamide] | 0.1 to 100 | – | 0.1 to 100
O=C(Nc1ccc(-c2n[nH]c(=O)c3ccccc23)cc1)c1cnn2cccnc12 [Example 113, N-[4-(4-oxo-3,4-dihydrophthalazin-1-yl)phenyl]pyrazolo[1,5-a]pyrimidine-3-carboxamide] | 101 to 1000 | – | 101 to 1000
O=C(Nc1ccc(-c2n[nH]c(=O)c3ccccc23)cc1)c1nn(Cc2ccccn2)c2ccccc12 [Example 160, N-[4-(4-oxo-3,4-dihydrophthalazin-1-yl)phenyl]-1-(pyridin-2-ylmethyl)-1H-indazole-3-carboxamide] | 0.1 to 100 | – | 0.1 to 100
O=C(Nc1ccc(-c2n[nH]c(=O)c3ccccc23)cc1)c1noc2ccccc12 [Example 118, N-[4-(4-oxo-3,4-dihydrophthalazin-1-yl)phenyl]-1,2-benzoxazole-3-carboxamide] | 101 to 1000 | – | 0.1 to 100
Cn1nc2c(c1C(=O)Nc1ccc(-c3n[nH]c(=O)c4ccccc34)cc1)CCCC2 [Example 116, 2-methyl-N-[4-(4-oxo-3,4-dihydrophthalazin-1-yl)phenyl]-4,5,6,7-tetrahydro-2H-indazole-3-carboxamide] | 0.1 to 100 | – | 0.1 to 100
COc1ccc2c(-c3ccc(NC(=O)c4nn(CC(C)(C)O)c5ccccc45)cc3)n[nH]c(=O)c2c1 [Example 369, 1-(2-Hydroxy-2-methylpropyl)-N-(4-(6-methoxy-4-oxo-3,4-dihydrophthalazin-1-yl)phenyl)-1H-indazole-3-carboxamide] | 101 to 1000 | – | 0.1 to 100
O=C(Nc1ccc(-c2n[nH]c(=O)c3ccccc23)c(CO)c1)c1nn(CC2CCCO2)c2ccccc12 (stereo not drawn) [Example 367, N-(3-(Hydroxymethyl)-4-(4-oxo-3,4-dihydrophthalazin-1-yl)phenyl)-1-((tetrahydrofuran-2-yl)methyl)-1H-indazole-3-carboxamide] | 1000 to 50000 | – | 0.1 to 100
O=C(Nc1ccc(-c2n[nH]c(=O)c3ccccc23)cc1)c1nn(Cc2ccncc2)c2ccccc12 [Example 165, N-[4-(4-oxo-3,4-dihydrophthalazin-1-yl)phenyl]-1-(pyridin-4-ylmethyl)-1H-indazole-3-carboxamide] | 0.1 to 100 | – | 0.1 to 100
Cc1oc2ccc(OCc3ccccc3)cc2c1C(=O)Nc1ccc(-c2n[nH]c(=O)c3ccccc23)cc1 [Example 105, 5-(benzyloxy)-2-methyl-N-[4-(4-oxo-3,4-dihydrophthalazin-1-yl)phenyl]-1-benzofuran-3-carboxamide] | 101 to 1000 | – | 0.1 to 100
O=C(Nc1ccc(-c2c[nH]c(=O)c3ccccc23)cc1)N1CCc2ccccc21 [Example 77, N-(4-(1-Oxo-1,2-dihydroisoquinolin-4-yl)phenyl)indoline-1-carboxamide] | 0.1 to 100 | – | 0.1 to 100
